Read-outs that look alike come from different tables or passages of the source.
Key:
Enterobacteriaceae = assay: Broth microdilution MIC (Example 11); details: Escherichia coli, read-out: MIC values
Candida glabrata = assay: Broth microdilution antifungal susceptibility (Example 13); type: cell-based; details: Nakaseomyces glabratus
Achromobacter spp. = assay: MIC against CF bacterial strains (Example 5)
C. glabrata = assay: Broth microdilution MIC, yeast (Example 11); type: cell-based; details: Nakaseomyces glabratus, FLU^R
[1] = tested on: beta-hemolytic streptococci; assay: Broth microdilution MIC (Example 11); details: read-out: MIC values
M. avium = assay: MIC against CF bacterial strains (Example 5); type: cell-based, Mycobacterium avium
Method: A range of CF-isolated strains of Mycobacterium avium and Mycobacterium abscessus were included; which allows for understanding of the activity against non-tubercular Mycobacteria (NTM). Two distinct bismuth-thiol compounds were evaluated, including BisEDT and BisBDT. […] The CF-isolates of greater clinical relevance, including both M abscessus spp. and Burkholderia spp., were both consistently found to be much more susceptible to BisEDT and BisBDT.

A. flavus = assay: Broth microdilution antifungal susceptibility (Example 13); type: cell-based; details: Aspergillus flavus
A. niger = assay: as above; type: cell-based; details: Aspergillus niger, ATCC29508; read-out: MIC0 48 hr
Neisseria gonorrhoeae = assay: Agar dilution MIC (Example 11); type: cell-based
[2] = tested on: Staphylococcus aureus (MRSA); assay: Broth microdilution MIC (Example 11)
Candida albicans = assay: Broth microdilution antifungal susceptibility (Example 13); type: cell-based; details: Candida albicans
Escherichia coli = assay: Broth microdilution MIC (Example 12); details: Escherichia coli

Which MIC (Enterobacteriaceae) does the source give for `CC(S)C(C)S.[Bi]` (centres unmarked) [BisBDT, bismuth-2,3-butanedithiol] here?
Its MIC is 0.5 to 2 µg/mL.

And the MIC (Candida glabrata; ATCC90030, read-out: MIC0 (complete inhibition), isolate ATCC 90030 (Susceptible))?
Its MIC is 1 µg/mL.

And the MIC (Candida glabrata; ATCC90030, read-out: MIC2 (50% inhibition), isolate ATCC 90030 (Susceptible))?
The MIC was 0.5 µg/mL.

What about the MIC (Candida glabrata; read-out: MIC0 (complete inhibition), isolate ATCC MYA-2950 (Susceptible)) of the same molecule?
Its MIC is 1 µg/mL.

And the MIC (Candida glabrata; read-out: MIC0 (complete inhibition), isolate MMX 7087 (Susceptible))?
Its MIC is 1 µg/mL.

What about the MIC (Candida glabrata; read-out: MIC0 (complete inhibition), isolate MMX 7093 (FLU-R)) of the same molecule?
The MIC was 2 µg/mL.

What about the MIC (Candida glabrata; read-out: MIC0 (complete inhibition), isolate MMX 7101 (FLU-R)) of the same molecule?
The MIC was 1 µg/mL.

What about the MIC (Candida glabrata; read-out: MIC0 (complete inhibition), isolate MMX 7103 (CASP-R, MICA-R)) of the same molecule?
Its MIC is 1 µg/mL.

And the MIC (Candida glabrata; read-out: MIC0 (complete inhibition), isolate MMX 7111 (Susceptible))?
Its MIC is 1 µg/mL.

And the MIC (Candida glabrata; read-out: MIC0 (complete inhibition), isolate MMX 7285 (CASP-R, MICA-R))?
Its MIC is 0.5 µg/mL.

And the MIC (Candida glabrata; read-out: MIC0 (complete inhibition), isolate MMX 7307 (CASP-R, MICA-R, FLU-R))?
The MIC was 1 µg/mL.

And the MIC (Candida glabrata; read-out: MIC0 (complete inhibition), isolate MMX 7549 (Susceptible))?
The MIC was 1 µg/mL.

What about the MIC (Candida glabrata; read-out: MIC2 (50% inhibition), isolate ATCC MYA-2950 (Susceptible)) of the same molecule?
Its MIC is 0.5 µg/mL.

And the MIC (Candida glabrata; read-out: MIC2 (50% inhibition), isolate MMX 7087 (Susceptible))?
The MIC was 0.5 µg/mL.

What about the MIC (Candida glabrata; read-out: MIC2 (50% inhibition), isolate MMX 7093 (FLU-R)) of the same molecule?
Its MIC is 1 µg/mL.

And the MIC (Candida glabrata; read-out: MIC2 (50% inhibition), isolate MMX 7101 (FLU-R))?
Its MIC is 0.5 µg/mL.

And the MIC (Candida glabrata; read-out: MIC2 (50% inhibition), isolate MMX 7103 (CASP-R, MICA-R))?
Its MIC is 0.5 µg/mL.

What about the MIC (Candida glabrata; read-out: MIC2 (50% inhibition), isolate MMX 7111 (Susceptible)) of the same molecule?
The MIC was 0.5 µg/mL.

And the MIC (Candida glabrata; read-out: MIC2 (50% inhibition), isolate MMX 7285 (CASP-R, MICA-R))?
Its MIC is 0.25 µg/mL.

And the MIC (Candida glabrata; read-out: MIC2 (50% inhibition), isolate MMX 7307 (CASP-R, MICA-R, FLU-R))?
Its MIC is 0.5 µg/mL.

What about the MIC (Candida glabrata; read-out: MIC2 (50% inhibition), isolate MMX 7549 (Susceptible)) of the same molecule?
Its MIC is 0.5 µg/mL.

And the MIC (Achromobacter spp.)?
Its MIC is 0.5 µg/mL.

What about the MIC (Achromobacter spp.; Achromobacter) of the same molecule?
Its MIC is 1 µg/mL.

And the MIC (C. glabrata; 24 h, C. glabrata MMX 7086)?
Its MIC is 0.5 µg/mL.

And the MIC (C. glabrata; 24 h, C. glabrata MMX 7318)?
Its MIC is 0.25 µg/mL.

And the MIC (C. glabrata; 48 h, C. glabrata MMX 7086)?
The MIC was 1 µg/mL.

What about the MIC (C. glabrata; 48 h, C. glabrata MMX 7318) of the same molecule?
The MIC was 0.5 µg/mL.

What about the MIC [1] of the same molecule?
Its MIC is 0.03 to 2 µg/mL.

And the MIC (M. avium; Mycobacterium avium)?
The MIC was greater than 16 µg/mL.

What about the MIC (M. avium; strain MAC101, MAC reference strain, blood isolate from HIV patient) of the same molecule?
The MIC was 1 µg/mL.

And the MIC (A. flavus; ATCC22546, A. flavus ATCC 22546, 24 hr, read-out: MIC0 24 hr)?
The MIC was 1 µg/mL.

And the MIC (A. flavus; ATCC22546, A. flavus ATCC 22546, 48 hr, read-out: MIC0 48 hr)?
The MIC was 2 µg/mL.

What about the MIC (A. flavus; ATCC204304, A. flavus ATCC 204304, 24 hr, read-out: MIC0 24 hr) of the same molecule?
Its MIC is 4 µg/mL.

What about the MIC (A. flavus; ATCC204304, A. flavus ATCC 204304, 48 hr, read-out: MEC at 48 hr (MIC0 not observed)) of the same molecule?
Its MIC is 4 µg/mL.

And the MIC (A. flavus; A. flavus MMX 7935, 24 hr, read-out: MIC0 24 hr)?
The MIC was 8 µg/mL.

What about the MIC (A. flavus; A. flavus MMX 7935, 48 hr, read-out: MIC0 48 hr) of the same molecule?
The MIC was 8 µg/mL.

And the MIC (A. niger)?
The MIC was 2 µg/mL.

And the MIC (Neisseria gonorrhoeae; ATCC49226, N. gonorrhoeae MMX 683 (ATCC 49226), QC)?
Its MIC is 0.06 µg/mL.

What about the MIC (Neisseria gonorrhoeae; N. gonorrhoeae MMX 6757, CTX NS) of the same molecule?
Its MIC is 0.06 µg/mL.

And the MIC (Neisseria gonorrhoeae; N. gonorrhoeae MMX 6791, CIP^R)?
The MIC was 0.12 µg/mL.

And the MIC (Neisseria gonorrhoeae; N. gonorrhoeae MMX 6792, CIP^R)?
Its MIC is 0.12 µg/mL.

And the MIC (Neisseria gonorrhoeae; N. gonorrhoeae MMX 6793, CIP^R)?
The MIC was 0.25 µg/mL.

And the MIC (Neisseria gonorrhoeae; read-out: MIC values, QC isolate, ciprofloxacin-resistant, ceftriaxone non-susceptible isolates)?
The MIC was 0.06 to 0.25 µg/mL.

What about the MIC ([2]; ATCC29213 / MRSA / MSSA) of the same molecule?
The MIC was no more than 0.06 µg/mL.

What about the MIC ([2]; MRSA) of the same molecule?
Its MIC is no more than 0.06 µg/mL.

And the MIC ([2]; MRSA, read-out: MIC values)?
Its MIC is less than 0.06 µg/mL.

What about the MIC (Candida albicans; 24 h, read-out: MIC0 (complete inhibition), isolate MMX 7053 (Susceptible), 24 hr) of the same molecule?
The MIC was 1 µg/mL.

And the MIC (Candida albicans; 24 h, read-out: MIC0 (complete inhibition), isolate MMX 7067 (FLU-R, VORI-R), 24 hr)?
Its MIC is 1 µg/mL.

What about the MIC (Candida albicans; 24 h, read-out: MIC0 (complete inhibition), isolate MMX 7430 (Susceptible), 24 hr) of the same molecule?
Its MIC is 0.5 µg/mL.

What about the MIC (Candida albicans; 24 h, read-out: MIC0 (complete inhibition), isolate MMX 7437 (FLU-I), 24 hr) of the same molecule?
Its MIC is 2 µg/mL.

And the MIC (Candida albicans; 24 h, read-out: MIC0 (complete inhibition), isolate MMX 7445 (FLU-R, VORI-R), 24 hr)?
Its MIC is 2 µg/mL.

What about the MIC (Candida albicans; 24 h, read-out: MIC2 (50% inhibition)) of the same molecule?
Its MIC is 1 µg/mL.

And the MIC (Candida albicans; 24 h, read-out: MIC2 (50% inhibition), isolate ATCC MYA-2732 (FLU-R, VORI-I), 24 hr)?
The MIC was 1 µg/mL.

What about the MIC (Candida albicans; 24 h, read-out: MIC2 (50% inhibition), isolate MMX 7053 (Susceptible), 24 hr) of the same molecule?
Its MIC is 0.5 µg/mL.

And the MIC (Candida albicans; 24 h, read-out: MIC2 (50% inhibition), isolate MMX 7067 (FLU-R, VORI-R), 24 hr)?
Its MIC is 0.5 µg/mL.

And the MIC (Candida albicans; 24 h, read-out: MIC2 (50% inhibition), isolate MMX 7403 (Susceptible), 24 hr)?
The MIC was 0.25 µg/mL.

And the MIC (Candida albicans; 24 h, read-out: MIC2 (50% inhibition), isolate MMX 7424 (CASP-R, MICA-R), 24 hr)?
The MIC was 1 µg/mL.

What about the MIC (Candida albicans; 24 h, read-out: MIC2 (50% inhibition), isolate MMX 7430 (Susceptible), 24 hr) of the same molecule?
Its MIC is 0.25 µg/mL.

And the MIC (Candida albicans; 24 h, read-out: MIC2 (50% inhibition), isolate MMX 7445 (FLU-R, VORI-R), 24 hr)?
Its MIC is 1 µg/mL.

And the MIC (Candida albicans; 24 h, read-out: MIC0 (complete inhibition))?
The MIC was 2 µg/mL.

What about the MIC (Candida albicans; ATCC90028, 24 h, read-out: MIC0 (complete inhibition), isolate ATCC 90028 (Susceptible), 24 hr) of the same molecule?
The MIC was 2 µg/mL.

What about the MIC (Candida albicans; ATCC90028, 24 h, read-out: MIC2 (50% inhibition), isolate ATCC 90028 (Susceptible), 24 hr) of the same molecule?
The MIC was 0.5 µg/mL.

And the MIC (Candida albicans; ATCC204276, 24 h, read-out: MIC0 (complete inhibition), isolate ATCC 204276 (MICA-R), 24 hr)?
The MIC was 1 µg/mL.

And the MIC (Candida albicans; ATCC204276, read-out: MIC2 (50% inhibition), isolate ATCC 204276 (MICA-R), result after 48 hr incubation (insufficient growth at 24 hr))?
Its MIC is 1 µg/mL.

And the MIC (Escherichia coli; ATCC25922, E. coli ATCC 25922, QC organism)?
Its MIC is 1 µg/mL.

What about the MIC (Escherichia coli; ATCC35218, E. coli ATCC 35218, ESBL) of the same molecule?
Its MIC is 1 µg/mL.

What about the MIC (Escherichia coli; ATCC35218, E. coli ATCC 35218, QC organism (Table 102)) of the same molecule?
Its MIC is 1 µg/mL.

What about the MIC (Escherichia coli; ATCCBAA2471, E. coli ATCC BAA-2471, NDM) of the same molecule?
The MIC was 2 µg/mL.

What about the MIC (Escherichia coli; E. coli CDC 114, ESBL/KPC) of the same molecule?
The MIC was 2 µg/mL.

And the MIC (Escherichia coli; E. coli CDC 118, ESBL/NDM)?
Its MIC is 1 µg/mL.

And the MIC (Escherichia coli; E. coli CDC 435, NDM)?
Its MIC is 1 µg/mL.

And the MIC (Escherichia coli; E. coli CDC 451, KPC)?
Its MIC is 1 µg/mL.

What about the MIC (Escherichia coli; E. coli CDC 503, ESBL/NDM) of the same molecule?
Its MIC is 2 µg/mL.

What about the MIC (Escherichia coli; E. coli MMX 5745, KPC) of the same molecule?
Its MIC is 2 µg/mL.

What about the MIC (Escherichia coli; E. coli MMX 5755, ESBL) of the same molecule?
The MIC was 2 µg/mL.

What about the MIC (Escherichia coli; E. coli MMX 5756, ESBL) of the same molecule?
Its MIC is 1 µg/mL.

And the MIC (Escherichia coli; E. coli MMX 5758, ESBL)?
The MIC was 1 µg/mL.
